{
  "source": "patent US20230101803A1",
  "about": "“3CLPRO-TARGETING PHILLYRIN, DERIVATIVE THEREOF, AND USE THEREOF AGAINST NOVEL CORONAVIRUS” (DALIAN FUSHENG NATURAL MEDICINE DEVELOPMENT CO., LTD., priority 2020, published 2023)",
  "key": {"HCoV-229E": {"tested_on": "HCoV-229E", "assay": "CPE inhibition of HCoV-229E in vitro (process of first embodiment)", "assay_type": "cell-based"}, "[1]": {"target": "SARS-CoV-2 3CL pro protein (Severe acute respiratory syndrome coronavirus 2, UniProt P0DTD1)", "assay_type": "binding", "details": "3CL pro protein peak at 278 nm; protein 10^−5 M, compound 10^−4 M"}, "MCP-1": {"tested_on": "MCP-1", "assay": "MCP-1 mRNA expression in lung homogenate of infected mice (RT-qPCR)", "assay_type": "in vivo, ACE2 transgenic C57BL/6 mice", "details": "positive control 50 mg/kg, fifth day after infection", "from_the_text": "(§1) Mice: hACE2 mice, 6-7 weeks old, 20-40 g, 120 males in total, laboratory animal supplier: Jiangsu Gempharmatech Co., Ltd.; laboratory animal production license: SOCK (Su) 2018-0008; laboratory animal certificate No.: No.320727201100243581; diets supplier: Jiangsu Medicience Biopharmaceutical Co., Ltd.\n(§2) Except for administrating PBS to the mice in the normal group by nasal drip, the mice in other groups were infected with 10^5 PFU of SARS-CoV-2 virus by nasal drip. Two hours after infection, phillyrin was intragastrically administrated to the mice in the administrating groups, once a day, for 5 consecutive days. On the fifth day after infection, the animals were dissected to take lungs for tissue homogenization to test the viral titer. Total RNA was extracted from the supernatant of lung tissue homogenate by Trizol method, and the mRNA expression of related inflammatory factors was detected by RT-qPCR."}, "IFN-α": {"tested_on": "IFN-α", "assay": "IFN-α mRNA expression in lung homogenate of infected mice (RT-qPCR)", "assay_type": "in vivo, ACE2 transgenic C57BL/6 mice", "details": "positive control 50 mg/kg, fifth day after infection", "from_the_text": "as §1, §2"}, "IFN-γ": {"tested_on": "IFN-γ", "assay": "IFN-γ mRNA expression in lung homogenate of infected mice (RT-qPCR)", "assay_type": "in vivo, ACE2 transgenic C57BL/6 mice", "details": "positive control 50 mg/kg, fifth day after infection", "from_the_text": "as §1, §2"}, "IL-1β": {"tested_on": "IL-1β", "assay": "IL-1β mRNA expression in lung homogenate of infected mice (RT-qPCR)", "assay_type": "in vivo, ACE2 transgenic C57BL/6 mice", "details": "positive control 50 mg/kg, fifth day after infection", "from_the_text": "as §1, §2"}, "SARS-CoV-2 virus [2]": {"tested_on": "SARS-CoV-2 virus", "assay": "Viral titer in lung tissues of novel coronavirus-infected mice", "assay_type": "in vivo, ACE2 transgenic C57BL/6 mice", "details": "positive control 50 mg/kg, fifth day after infection", "from_the_text": "as §1, §2"}, "SARS-CoV-2 virus [3]": {"tested_on": "SARS-CoV-2 virus", "assay": "Death protection of hACE2 mice infected with novel coronavirus", "assay_type": "in vivo, hACE2 transgenic C57BL/6 mice", "details": "positive control 50 mg/kg", "method": "Except for administrating PBS to the mice in the normal group by nasal drip, the mice in other groups were infected with 10^5 PFU of SARS-CoV-2 virus by nasal drip. […] Changes in body weight were recorded every day after infection, and 5-day mortality was calculated."}},
  "note": "Read-outs that look alike come from different tables or passages of the source.",
  "data": [
    {"molecule": "COc1cc([C@H]2OC[C@H]3[C@@H]2CO[C@H]3c2ccc(OC)c(OC)c2)ccc1O", "note": "[phillygenin]", "values": [
      {"measurement": "inhibitory effect (compared in the same study)", "setting": "HCoV-229E; HCoV-229E, compared with the composition", "result": "worse"}
    ]},
    {"molecule": "phillyrin [KD-1]", "values": [
      {"measurement": "change of UV-Vis absorbance of 3CL pro protein after compound was added", "setting": "[1]", "result": "the absorbance was increased and the peak shifted"},
      {"measurement": "inhibitory effect (compared in the same study)", "setting": "HCoV-229E", "result": "worse"}
    ]},
    {"molecule": "CCC(CC)COC(=O)[C@H](C)N[P@](=O)(OC[C@H]1O[C@@](C#N)(c2ccc3c(N)ncnn23)[C@H](O)[C@@H]1O)Oc1ccccc1", "note": "[Remdesivir]", "values": [
      {"measurement": "MCP-1 mRNA expression in lung homogenate", "setting": "MCP-1", "result": "7.31 ± 5.14"},
      {"measurement": "IFN-α mRNA expression in lung homogenate", "setting": "IFN-α", "result": "69.99 ± 53.20"},
      {"measurement": "IFN-γ mRNA expression in lung homogenate", "setting": "IFN-γ", "result": "173.79 ± 84.84"},
      {"measurement": "IL-1β mRNA expression in lung homogenate", "setting": "IL-1β", "result": "7.41 ± 5.86"},
      {"measurement": "Viral titer in lung (Log10)", "setting": "SARS-CoV-2 virus [2]", "result": "1.68 ± 0.45", "unit": "Log10"},
      {"measurement": "Mean survival days", "setting": "SARS-CoV-2 virus [3]", "result": "4.86 ± 0.38", "unit": "days"},
      {"measurement": "Survival rate (%)", "setting": "SARS-CoV-2 virus [3]", "result": 87.50, "unit": "%"}
    ]}
  ]
}
